Measurements taken from patent US20060269924A1, “Modulation of telomere-initiated cell signaling” (TRUSTEES OF BOSTON UNIVERSITY, priority 2003, published 2006).
{P} = phosphate

Columns and labels:
[1] = system: HT-1080 fibrosarcoma cells; experiment: BrdU incorporation assay, HT-1080 cells; assay type: cell-based, human
Description: (§1) FIG. 13a: Exposure to T-oligo increases SA-β-Gal activity. HT-1080 cells were treated for 4 days with diluent alone or 40 μM T-oligo or the complementary control oligo, then stained and assayed for SA-β-Gal activity. FIG. 13b: Quantitative analysis of SA-β-Gal positive cells. Cells expressing SA-β-Gal activity were counted and presented as percentage of total cells in the cultures. Averages and standard deviations were calculated from 3 representative fields from each of 3 independent experiments. FIG. 13c: Effect of T-oligo on cell proliferation. Cells were treated for 4 days as in FIG. 12 and assayed for DNA synthesis by BrdU incorporation. FIG. 13d: Quantitative analysis of BrdU incorporation. Dark black nuclei indicate BrdU incorporated into nuclear DNA. BrdU positive cells were calculated and presented as percentage of total cells in the cultures. Averages and standard deviations were calculated from 3 representative fields from each of 3 independent experiments. FIG. 13e: Effect of T-oligo on pRb phosphorylation. Cells were treated as in FIG. 13a and were then collected for protein analysis by western blot using 30 μg total protein and probed for pRb-ser780*, ser795* and ser807/811* (pRb phosphorylated at serine 780, serine 795 and serine 807/811 respectively). Lanes D, T and C contain protein samples from cells treated with diluent, T-oligo and complementary oligo respectively. β-actin was used as a loading control.
Parallel cultures were treated as described in FIG. 13a. Cells were then washed once with PBS and refed with complete medium without additional treatment for 24 hours or 48 hours. FIG. 14a: SA-β-Gal activity. […]
HT-1080 fibrosarcoma cells cultured on Permanox chamber slides were treated with diluent, 40 μM T-oligo or 40 μM complementary oligo for 4 days and DNA synthesis was assayed using 5-bromo-2′-deoxy-uridine (BrdU) Labeling and Detection Kit II (Roche Molecular Biochemicals, Indianapolis, Ind.) following the protocol supplied by the manufacturer. […] After incubation with anti-mouse-Ig-alkaline phosphatase, the color reaction was detected by light microscopy. […]

[2] = system: pRb phosphorylation on serine 780, serine 795 and serine 807/811; experiment: Western blot of pRb phosphorylation in HT-1080 cells; assay type: cell-based, human
Description: as §1, with “Lanes D, T and C contain protein samples from cells treated with diluent, T-oligo and complementary oligo respectively. β-actin was used as a loading control.” left out

p53 phosphoserine 37 = experiment: Western blot for p53 phosphoserine 37; assay type: cell-based; details: normal neonatal fibroblasts, 40 μM
Description: Western blot analysis was performed on normal neonatal cells using a antibody specific for p53 phosphoserine 37 after being treated with either diluent or 40 μM for the indicated times.
Normal neonatal fibroblasts were treated with either diluent or 40 μM (11mer-1) for 4, 6, 8, 19, 24 and 48 hours and then collected for Western blot analysis using an antibody specific for p53 phosphoserine 37. Sham and IR-irradiated (10 Gy) fibroblasts were used used as negative and positive controls, respectively.

## pGTTAGGGTTAG (DNA, 5' {P}, backbone not given here; listed as Homo sapiens) [Oligonucleotide 11mer-1]
[1]; HT-1080, 4 days 40 μM, then 1 and 2 days fresh medium without oligonucleotide
  DNA synthesis (BrdU) after removal of oligo: did not resume DNA synthesis
[1]; HT-1080 cells, 40 μM, 4 days
  BrdU incorporation (BrdU positive cells): 7±2%
[2]; HT-1080, 4 days 40 μM, then fresh medium without oligonucleotide
  state of pRb proteins after removal of oligo: sustained in an active, inhibitory state
[2]; HT-1080 cells, 40 μM, 4 days
  pRb phosphorylation on serine 780, serine 795 and serine 807/811: striking and selective reduction
p53 phosphoserine 37; 8 hours
  p53 serine 37 phosphorylation (band intensity vs diluent): detected
p53 phosphoserine 37; 48 hours
  p53 serine 37 phosphorylation (band intensity vs diluent): very prominent
